Molecules are shown by their SMILES. Like-named read-outs stand apart in the source and are kept apart here.

These results are taken from paper PMC5085131, “Cyclic AMP efflux inhibitors as potential therapeutic agents for leukemia” (Oncotarget, 2016).

The subject of data set [1] is B-ALL cell lines. Nature of the data set: CellTiter-Glo cell viability, all B-ALL cell lines together. Conditions: Homo sapiens; mean of converged EC50s of six B-ALL lines; read-out: Compound EC50, Mean B-ALL (cell viability). The data set is classed as cell-based, human. The protocol: (§1) Cell viability was determined with the CellTiter-Glo® Luminescent Cell Viability Assay (Promega). Greiner 655083 had 100 μL cRPMI +/− 4×10^4 cells/well, and dose response curves of compounds ranged from 100 μM to 1.53 nM (1% DMSO). Wells with DMSO-only served as negative controls. Samples were incubated overnight, and the assay was completed according to the manufacturer's protocol. Plates were analyzed using a Victor^3V™ 1420 Multilabel Counter (Perkin Elmer).
A general note: ATP-based viability assays read luminescence as a measure of living cells.

The subject of data set [2] is CREB (Ser133) / ATF-1 (Ser63) phosphorylation. Kind of data set: Binding of anti-phospho-CREB/ATF-1 antibody in U937 cells (flow cytometry). The data set is classed as cell-based, human. Particulars: 1 hour, 20 μM. The protocol:
Cells were suspended at 10^6 cells/ml in cRPMI and incubated for 1 hour at 37°C with 20 μM ICE compounds or forskolin (positive control). Negative control samples were treated with DMSO at equal volume. Cells were fixed with 20x volume of pre-warmed 1x solution BD Phosflow^TM Lyse/Fix Buffer (cat. 558049), incubated at 37°C for 10 minutes, permeabilized with BD Phosflow^TM Perm buffer II (cat. 558052), and incubated on ice for 30 minutes. Permeabilized cells were then washed and stained with BD Phosflow™ Alexa Fluor® 488 Mouse Anti-CREB (pS133) / ATF-1 (pS63) clone J151-21 (cat. 558435) according to the manufacturer's instructions.
(In general: A flow cytometer gives signals particle by particle.)

In data set [3] the test system is U937 cells. Nature of the data set: MultiCyt 4-Plex apoptosis assay. The data set is classed as cell-based, human. Particulars: for EC50: Homo sapiens, U-937, 24 h. The protocol:
Apoptosis was determined using MultiCyt® 4-Plex Apoptosis Screening Kit (IntelliCyt, cat. 90053). The kit provides four different apoptosis endpoints that include effector caspases 3 and 7 activation, phosphatidylserine surface expression, mitochondrial membrane depolarization and cell membrane integrity. […] Cell membrane damage is detected by the uptake of a proprietary DNA intercalating agent analogous to 7-aminoactinomycin D.
384-well plates (Greiner 784201), pre-loaded with 5 μL cRPMI were stamped using a pintool with 100 nl of DMSO-solubilized compounds from the 100-fold concentrated stock solution. Next, 5 μL U937 cells (2 × 10^6/ml in cRPMI) were added to wells and mixed, and plates were foil-sealed. Compounds (Table 1) were tested in dose response at final concentrations ranging from 15.2 nM to 100 μM (1% DMSO final). Vehicle (DMSO) was used as a negative control. After 24 h incubation under culture conditions, the IntelliCyt MultiCyt 4-Plex Apoptosis Screening Kit was used according to manufacturer's protocol. The data were acquired using iQue Screener Platform (IntelliCyt). Singlet cell populations were analyzed for individual measures of apoptosis, and gates were set based on control histograms.

Data set [4] concerns primary B-ALL patient samples. Kind of data set: CellTiter-Glo cell viability of primary ALL patient samples ex vivo. Particulars: for EC50: Homo sapiens; for Cell viability vs. vehicle treated sample at lower concentrations: samples from patients no. 1 and no. 5. In kind it is cell-based, human. The procedure: Bone marrow samples were acquired at diagnosis from pediatric B-ALL patients. Mononuclear cells were enriched by centrifugation in Ficoll-Paque (GE Healthcare, cat. 17-1440-02) and aliquoted for storage in liquid nitrogen until use. Samples were thawed in a 37°C water bath, resuspended in 20% FBS cRPMI, and centrifuged to remove freezing medium. Cells were resuspended in conditioned medium (DMEM, 10% FBS, 50 U/ml penicillin-streptomycin, 2 mM L-glutamine) from HS-5 stromal cell cultures.
as §1
For primary ALL patient samples, media consisted of 50% cRPMI, 50% conditioned DMEM from HS-5 stromal cell cultures and compounds. Cell densities ranged from 28,000-68,000 cells/well, and plates were foil-sealed prior to incubation.

Details of data set [5]: method as in PMID 19505822. Conditions: cited from earlier work.
On the set-up of data set [6]: method as in PMID 19505822. Conditions: cited from earlier work. This is another data set of the same source.
[7] abbreviates: mean of converged EC50s, read-out: Compound EC50, Means (of the apoptosis endpoints).
Setting [8] is: n = 4, ± SEM, read-out: Compound EC50, Annexin-V +.
Where [9] appears, read: n = 4, ± SEM, read-out: Compound EC50, Cell membrane damage.
The mark [10] stands for this setting: n = 4, ± SEM, read-out: Compound EC50, Mitochondrial depolarization.
Setting [11] is: mean of converged EC50s of six patient samples, read-out: Compound EC50 (Sample means), cell viability.
[12] abbreviates: primary B-ALL sample, duplicate, ± SEM, read-out: Compound EC50 (Patient no. 1), cell viability.
[13] abbreviates: primary B-ALL sample, duplicate, ± SEM, read-out: Compound EC50 (Patient no. 2), cell viability.
Where [14] appears, read: primary B-ALL sample, duplicate, ± SEM, read-out: Compound EC50 (Patient no. 3), cell viability.
Setting [15] is: primary B-ALL sample, duplicate, ± SEM, read-out: Compound EC50 (Patient no. 4), cell viability.
[16] abbreviates: primary B-ALL sample, duplicate, ± SEM, read-out: Compound EC50 (Patient no. 5), cell viability.
Setting [17] is: primary B-ALL sample, duplicate, ± SEM, read-out: Compound EC50 (Patient no. 6), cell viability.
The mark [18] stands for this setting: even at the highest ICE concentrations.
Setting [19] is: n = 4, ± SEM, read-out: Compound EC50, Active Caspase 3/7 +.

With `Oc1c(I)cc(Cl)c2cccnc12` [Clioquinol], the EC50 in data set [1] was determined as 35.2 µM; in data set [3] (setting [7]), 26.7 µM; in data set [3] (setting [8]), 51.1 ± 26.2 µM; in data set [3] (setting [9]), 11.1 ± 0.48 µM; in data set [3] (setting [10]), 17.9 ± 2.3 µM; in data set [4] (setting [11]), 58.8 µM. In addition, the EC50 in data set [4] (setting [12]) worked out at 60.1 ± 53.5 µM; in data set [4] (setting [13]), 158 ± 84.5 µM; in data set [4] (setting [14]), 8.67 ± 4.84 µM; in data set [4] (setting [15]), 48 ± 22.9 µM; in data set [4] (setting [16]), 13.8 ± 5.23 µM; in data set [4] (setting [17]), 63.9 ± 41.1 µM. Moreover, the “Binding of anti-CREB (pS133) / ATF-1 (pS63) specific antibodies” value in data set [2] is listed as “comparable to the adenylate cyclase stimulator forskolin positive control”. The “Cell viability vs. vehicle treated sample at lower concentrations” value in data set [4] was “significant increase in cell viability”.

Turning to `C[C@H]1COC2=C1C(=O)C(=O)c1c2ccc2c1CCCC2(C)C` [Cryptotanshinone], the EC50 in data set [1] worked out at 67.7 µM; in data set [3] (setting [7]), 25.8 µM; in data set [3] (setting [9]) it was 30.7 ± 6.83 µM; in data set [3] (setting [10]), 20.9 ± 6.96 µM; in data set [4] (setting [11]), 19.1 µM; in data set [4] (setting [12]), 12.9 ± 5.51 µM. Besides, the EC50 in data set [4] (setting [13]) came out at 29.8 ± 8.97 µM; in data set [4] (setting [14]) it was 14 ± 9.8 µM; in data set [4] (setting [15]) it was 34.4 ± 5.79 µM; in data set [4] (setting [16]) it was 6.88 ± 2.89 µM; in data set [4] (setting [17]), 16.6 ± 5.55 µM. Also, the “Effect on annexin-V binding” value in data set [3] (setting [18]) was “very small effect”. Besides, the “Effect on caspase activation” value in data set [3] (setting [18]) is given as “very small effect”.

Turning to `C=C1C(=O)O[C@H]2[C@H]1CC/C(C)=C/CC[C@@]1(C)O[C@@H]21` [Parthenolide], the EC50 in data set [1] was 1.77 µM; in data set [3] (setting [7]), 7.44 µM; in data set [3] (setting [19]), 12.4 ± 2.51 µM; in data set [3] (setting [8]), 7.55 ± 1.18 µM; in data set [3] (setting [9]) it was 4.34 ± 0.9 µM; in data set [3] (setting [10]), 5.52 ± 1.02 µM. For the same compound, the EC50 in data set [4] (setting [11]) is 3.15 µM; in data set [4] (setting [12]), 4.72 ± 3.71 µM; in data set [4] (setting [13]), 3.65 ± 1.73 µM; in data set [4] (setting [14]), 3.17 ± 1.44 µM; in data set [4] (setting [15]) it was 4.13 ± 1.92 µM; in data set [4] (setting [16]), 0.92 ± 0.58 µM. Further, in data set [4] (setting [17]), the EC50 is 2.31 ± 0.78 µM. The bioavailability result in data set [5] is listed as “Poor”. For the same compound, in data set [2], the “Binding of anti-CREB (pS133) / ATF-1 (pS63) specific antibodies” value is listed as “comparable to the adenylate cyclase stimulator forskolin positive control”. Further, the “Cell viability vs. vehicle treated sample at lower concentrations” value in data set [4] is given as “significant increase in cell viability”. The water-solubility result in data set [6] is “Poor”.

In the case of `O=C1C=C2C(=CCOC2O)O1` (stereo not shown) [Patulin], the EC50 in data set [1] is 0.38 µM; in data set [3] (setting [7]), 4.95 µM; in data set [3] (setting [19]), 12.8 ± 0.09 µM; in data set [3] (setting [8]) it was 3.75 ± 0.63 µM; in data set [3] (setting [9]) it was 1.54 ± 0.02 µM; in data set [3] (setting [10]), 1.72 ± 0.94 µM. Moreover, the EC50 was 7.36 µM in data set [4] (setting [11]); 1.79 ± 1.75 µM in data set [4] (setting [12]); 4.72 ± 2.1 µM in data set [4] (setting [13]); 0.4 ± 0.29 µM in data set [4] (setting [14]); 22.5 ± 11.8 µM in data set [4] (setting [16]).
